Measured values reported in patent publication US8742098B2, “Inhibitors of Bruton's tyrosine kinase” (Hoffmann-La Roche Inc., priority 2011, dated 2014).

System: B cell receptor-mediated activation of B cells in human blood
Assay: Inhibition of B cell activation in whole blood measured by CD69 expression
Format: cell-based
Conditions: anti-IgM stimulation, 20 hours, CD69-positive cells that are also CD20-positive, read-out: HWB IC50
Experimental: A procedure to test the ability of Btk inhibitors to suppress B cell receptor-mediated activation of B cells in human blood is as follows:
Human whole blood (HWB) is obtained from healthy volunteers, with the following restrictions: 24 hr drug-free, non-smokers. Blood is collected by venipuncture into Vacutainer tubes anticoagulated with sodium heparin. Test compounds are diluted to ten times the desired starting drug concentration in PBS (20×), followed by three-fold serial dilutions in 10% DMSO in PBS to produce a nine point dose-response curve. 5.5 μl of each compound dilution is added in duplicate to a 2 ml 96-well V bottom plate (Analytical Sales and Services, #59623-23); 5.5 μl of 10% DMSO in PBS is added to control and no-stimulus wells. HWB (100 μl) is added to each well, and after mixing the plates are incubated at 37 C, 5% CO2, 100% humidity for 30 minutes. Goat F(ab′)2 anti-human IgM (Southern Biotech, #2022-14) (10 μl of a 500 μg/ml solution, 50 μg/ml final concentration) is added to each well (except the no-stimulus wells) with mixing and the plates are incubated for an additional 20 hours.
At the end of the 20 hour incubation, samples are incubated with florescent-probe-labeled anti-bodies (15 μl PE Mouse anti-Human CD20, BD Pharmingen, #555623, and/or 20 ul APC Mouse anti-Human CD69, BD Pharmingen #555533) for 30 minutes, at 37 C, 5% CO2, 100% humidity. Included are induced control, unstained and single stains for compensation adjustments and initial voltage settings. Samples are then lysed with 1 ml of 1× Pharmingen Lyse Buffer (BD Pharmingen #555899), and plates are centrifuged at 1800 rpm for 5 minutes. Supernatants are removed via suction and the remaining pellets are lysed again with another 1 ml of 1× Pharmingen Lyse Buffer, and plates are spun down as before. Supernatants are aspirated and remaining pellets are washed in FACs buffer (PBS+1% FBS). After a final spin, the supernantants are removed and pellets are resuspended in 180 μl of FACs buffer. Samples are transferred to a 96 well plate suitable to be run on the HTS 96 well system on the BD LSR II flow cytometer.
Using appropriate excitation and emission wavelengths for the fluorophores used, data are acquired and percent positive cell values are obtained using Cell Quest Software. Results are initially analyzed by FACS analysis software (Flow Jo). […] The IC50 values are calculated using XLfit software version 3, equation 201.

| Structure (SMILES) | IC50 [nM] |
| --- | --- |
| CC(C)(C)c1cc(F)c2c(=O)n(-c3cccc(-c4cc(Nc5ccc(C(=O)N6CCOCC6)cn5)c5ncnn5c4)c3CO)ncc2c1 [Compound I-1, 6-tert-Butyl-8-fluoro-2-(2-hydroxymethyl-3-{8-[5-(morpholine-4-carbonyl)-pyridin-2-ylamino]-[1,2,4]triazolo[1,5-a]pyridin-6-yl}-phenyl)-2H-phthalazin-1-one] | 350 |
| CC(C)(C)c1cc(F)c2c(=O)n(-c3cccc(-c4cc(Nc5ccc(C(=O)N6CCOCC6)cn5)c5nccn5n4)c3CO)ncc2c1 [Compound I-2, 6-tert-Butyl-8-fluoro-2-(2-hydroxymethyl-3-{8-[5-(morpholine-4-carbonyl)-pyridin-2-ylamino]-imidazo[1,2-b]pyridazin-6-yl}-phenyl)-2H-phthalazin-1-one] | 77 |
| CC(C)N1CCN(c2ccc(Nc3cc(-c4cccc(-n5ncc6cc(C(C)(C)C)cc(F)c6c5=O)c4CO)nn4ccnc34)nc2)CC1 [Compound I-3, 6-tert-Butyl-8-fluoro-2-(2-hydroxymethyl-3-{8-[5-(4-isopropyl-piperazin-1-yl)-pyridin-2-ylamino]-imidazo[1,2-b]pyridazin-6-yl}-phenyl)-2H-phthalazin-1-one] | 40 |
| CN1CCN(Cc2ccc(Nc3cc(-c4cccc(-n5ncc6cc(C(C)(C)C)cc(F)c6c5=O)c4CO)nn4ccnc34)nc2)CC1 [Compound I-4, 6-tert-Butyl-8-fluoro-2-(2-hydroxymethyl-3-{8-[5-(4-methyl-piperazin-1-ylmethyl)-pyridin-2-ylamino]-imidazo[1,2-b]pyridazin-6-yl}-phenyl)-2H-phthalazin-1-one] | 13 |
| CC(C)(C)c1cc(F)c2c(=O)n(-c3cccc(-c4cnnc(Nc5ccc(C(=O)N6CCOCC6)cn5)c4)c3CO)ncc2c1 [Compound I-5, 6-tert-Butyl-8-fluoro-2-(2-hydroxymethyl-3-{6-[5-(morpholine-4-carbonyl)-pyridin-2-ylamino]-pyridazin-4-yl}-phenyl)-2H-phthalazin-1-one] | 890 |
| CC(C)(C)c1cc(F)c2c(=O)n(-c3cccc(-c4ccnc(Nc5ccc(C(=O)N6CCOCC6)cn5)c4)c3CO)ncc2c1 [Compound I-6, 6-tert-Butyl-8-fluoro-2-(2-hydroxymethyl-3-{2-[5-(morpholine-4-carbonyl)-pyridin-2-ylamino]-pyridin-4-yl}-phenyl)-2H-phthalazin-1-one] | 480 |
| CC(C)(C)c1cc(F)c2c(=O)n(-c3cccc(-c4cn5ccnc5c(Nc5ccc(C(=O)N6CCOCC6)cc5)n4)c3CO)ncc2c1 [Compound I-7, 6-tert-Butyl-8-fluoro-2-(2-hydroxymethyl-3-{8-[4-(morpholine-4-carbonyl)-phenylamino]-imidazo[1,2-a]pyrazin-6-yl}-phenyl)-2H-phthalazin-1-one] | 112 |
| CN1CCC(c2ccc(Nc3nc(-c4cccc(-n5ncc6cc(C(C)(C)C)cc(F)c6c5=O)c4CO)cn4ccnc34)cc2)CC1 [Compound I-8, 6-tert-Butyl-8-fluoro-2-(2-hydroxymethyl-3-{8-[4-(1-methyl-piperidin-4-yl)-phenylamino]-imidazo[1,2-a]pyrazin-6-yl}-phenyl)-2H-phthalazin-1-one] | 2270 |
| CC(C)(C)c1cc(F)c2c(=O)n(-c3cccc(-c4cc(Nc5ccc(C(=O)N6CCOCC6)cc5)c5nccn5c4)c3CO)ncc2c1 [Compound I-9, 6-tert-Butyl-8-fluoro-2-(2-hydroxymethyl-3-{8-[4-(morpholine-4-carbonyl)-phenylamino]-imidazo[1,2-a]pyridin-6-yl}-phenyl)-2H-phthalazin-1-one] | 1040 |
| CC(C)(C)c1cc(F)c2c(=O)n(-c3cccc(-c4cc(Nc5ccc(C(=O)N6CCOCC6)cn5)c5nccn5c4)c3CO)ncc2c1 [Compound I-10, 6-tert-Butyl-8-fluoro-2-(2-hydroxymethyl-3-{8-[5-(morpholine-4-carbonyl)-pyridin-2-ylamino]-imidazo[1,2-a]pyridin-6-yl}-phenyl)-2H-phthalazin-1-one] | 142 |
| CN1CCC(c2ccc(Nc3cc(-c4cccc(-n5ncc6cc(C(C)(C)C)cc(F)c6c5=O)c4CO)cn4ccnc34)nc2)CC1 [Compound I-11, 6-tert-Butyl-8-fluoro-2-{2-hydroxymethyl-3-[8-(1′-methyl-1′,2′,3′,4′,5′,6′-hexahydro-[3,4′]bipyridinyl-6-ylamino)-imidazo[1,2-a]pyridin-6-yl]-phenyl}-2H-phthalazin-1-one] | 72 |
| CC(C)(C)c1cc(F)c2c(=O)n(-c3cccc(-c4cc(Nc5ccc(C(=O)N6CCOCC6)cn5)ncn4)c3CO)ncc2c1 [Compound I-12, 6-tert-Butyl-8-fluoro-2-(2-hydroxymethyl-3-{6-[5-(morpholine-4-carbonyl)-pyridin-2-ylamino]-pyrimidin-4-yl}-phenyl)-2H-phthalazin-1-one] | 2500 |
| CC(C)(C)c1cc(F)c2c(=O)n(-c3cccc(-c4cc(Nc5ccc(C(=O)N6CCOCC6)cn5)c5ncccc5c4)c3CO)ncc2c1 [Compound I-13, 6-tert-Butyl-8-fluoro-2-(2-hydroxymethyl-3-{8-[5-(morpholine-4-carbonyl)-pyridin-2-ylamino]-quinolin-6-yl}-phenyl)-2H-phthalazin-1-one] | > 5000 |
